This is an account of results in patent US6867192B1, “Compounds useful in the treatment of inflammatory diseases” (priority 1998, dated 2005).

The IC50 is the concentration that inhibits the measured activity by half. A high value points to a need for much substance.

The target of the experiment is T1, integrin VLA-4, expressed on the Jurkat J6 (human lymphoblast cell line) cell membrane with VCAM-1 (Homo sapiens, UniProt P05556+P13612).
T1 construct: integrin VLA-4, expressed on the Jurkat J6 (human lymphoblast cell line) cell membrane; endogenous in cells; host or cells: Jurkat J6 cells (integrin). zzVCAM-1 was made in house in Drosophila melanogaster S2 cells
T1 sequence (P13612 34-1032): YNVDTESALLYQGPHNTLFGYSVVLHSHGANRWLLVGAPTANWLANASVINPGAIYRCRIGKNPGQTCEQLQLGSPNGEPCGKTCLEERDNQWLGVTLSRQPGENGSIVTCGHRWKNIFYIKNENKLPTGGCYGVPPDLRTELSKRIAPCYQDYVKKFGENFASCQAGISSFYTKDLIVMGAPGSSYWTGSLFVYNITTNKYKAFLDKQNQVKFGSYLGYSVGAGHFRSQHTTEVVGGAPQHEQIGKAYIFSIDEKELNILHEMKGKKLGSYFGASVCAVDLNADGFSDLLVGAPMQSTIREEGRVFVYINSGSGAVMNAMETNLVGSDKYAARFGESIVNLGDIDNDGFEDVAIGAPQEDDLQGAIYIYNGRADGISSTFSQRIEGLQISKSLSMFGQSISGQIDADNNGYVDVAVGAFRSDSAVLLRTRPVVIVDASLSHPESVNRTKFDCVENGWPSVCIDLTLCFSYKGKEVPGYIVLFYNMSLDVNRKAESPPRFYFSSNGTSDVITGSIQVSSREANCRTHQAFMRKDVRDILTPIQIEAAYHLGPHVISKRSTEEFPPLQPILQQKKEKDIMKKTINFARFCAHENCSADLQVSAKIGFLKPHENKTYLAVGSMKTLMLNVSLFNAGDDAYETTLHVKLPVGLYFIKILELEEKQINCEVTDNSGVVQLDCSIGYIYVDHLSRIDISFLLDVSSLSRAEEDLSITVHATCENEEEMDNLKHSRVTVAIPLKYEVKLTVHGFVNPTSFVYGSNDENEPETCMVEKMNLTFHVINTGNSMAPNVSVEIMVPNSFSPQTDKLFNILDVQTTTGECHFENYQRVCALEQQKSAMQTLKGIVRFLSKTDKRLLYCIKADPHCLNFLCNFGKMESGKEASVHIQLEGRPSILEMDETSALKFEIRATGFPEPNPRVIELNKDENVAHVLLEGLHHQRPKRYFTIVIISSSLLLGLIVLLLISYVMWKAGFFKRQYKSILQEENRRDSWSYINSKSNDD
T1 sequence (P05556 21-798): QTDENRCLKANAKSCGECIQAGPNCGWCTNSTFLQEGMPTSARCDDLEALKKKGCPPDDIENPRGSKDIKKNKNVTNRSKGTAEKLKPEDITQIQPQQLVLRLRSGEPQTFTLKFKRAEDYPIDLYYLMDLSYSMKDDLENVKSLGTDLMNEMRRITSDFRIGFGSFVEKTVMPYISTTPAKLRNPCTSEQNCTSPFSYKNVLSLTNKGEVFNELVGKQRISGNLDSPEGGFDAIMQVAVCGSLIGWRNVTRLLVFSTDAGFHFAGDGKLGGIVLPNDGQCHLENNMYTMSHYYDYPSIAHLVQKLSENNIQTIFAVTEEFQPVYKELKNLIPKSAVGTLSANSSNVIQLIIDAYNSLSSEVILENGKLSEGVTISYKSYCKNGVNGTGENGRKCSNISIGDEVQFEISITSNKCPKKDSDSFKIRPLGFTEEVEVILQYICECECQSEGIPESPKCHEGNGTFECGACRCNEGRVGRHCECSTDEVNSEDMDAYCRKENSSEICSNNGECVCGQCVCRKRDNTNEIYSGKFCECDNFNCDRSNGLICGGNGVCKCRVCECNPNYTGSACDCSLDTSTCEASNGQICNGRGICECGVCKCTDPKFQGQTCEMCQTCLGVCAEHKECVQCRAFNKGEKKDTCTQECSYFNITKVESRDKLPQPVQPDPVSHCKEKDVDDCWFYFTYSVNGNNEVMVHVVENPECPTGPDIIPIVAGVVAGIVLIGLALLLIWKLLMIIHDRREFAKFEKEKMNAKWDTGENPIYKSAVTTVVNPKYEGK
The experiment can be described thus: Jurkat J6/VCAM-1 adhesion assay. The following applies: Jurkat J6 cell adhesion to VCAM-1, 1 mM MnCl2; mean of n experiments. The format is cell-based. As for the experimental part: (1) Jurkat J6/VCAM-1 Adhesion Assay
This assay was used to investigate the interaction of the integrin VLA-4, expressed on the Jurkat J6 (human lymphoblast cell line) cell membrane with VCAM-1. Polystyrene 96-well microtitre plates were coated with human immunoglobulin G (IgG; Sigma Chemicals, UK, Product No. 14506) at a concentration of 0.05 mg ml^−1 in bicarbonate buffer (36 mM NaHCO3 and 22 mM Na2CO3, prepared in Dulbecco's phosphate buffered saline at pH 9.8 (PBS); Sigma Chemicals, UK, Product No. 14190-094) for 2 hours at 37° C. This solution was then aspirated and the plates were washed twice with PBS.
VCAM-1 was prepared by cloning its constituent seven domains into a Drosophila expression system with a zz (Protein A) tag. This zzVCAM-1 was then expressed from Drosophila melanogaster S2 cell culture, induced with copper. Protease inhibitors were added and the culture supernatant was clarified either by filtration through a 0.2 μm filter or by centrifugation. The zzVCAM-1 was then purified from this clarified medium using an IgG agarose column, equilibrated with either 20 mM sodium phosphate pH 7.2 alone or in the presence of 0.5M sodium chloride. Elution of zzVCAM-1 from the column was mediated using 3M ammonium thiocyanate, which was subsequently removed using a G25 desalting column, equilibrated with 20 mM sodium phosphate, pH 7.2. The purified zzVCAM-1 was then concentrated to a small volume (Amicon stirred cell concentrators) until a concentration of 62.5 ng ml^−1 was obtained, calculated using the extinction coefficient value.
This solution of zzVCAM-1 was then incubated overnight at 4° C. in the IgG coated microtitre plates with 3% bovine serum albumin (BSA) in PBS, followed by aspiration and two further washes with PBS. A concentration of the Jurkat J6 cells (6×10^6 cels ml^−1), grown in cell media RPMI 1640 (HyClone Ltd, Product No. B-9106-L) supplemented with 10% heat inactivated fetal calf serum (FCS; Gibco BRL, Product No. 10099-075) and 2 mM L-glutamine, were labelled with 10 μM of the fluorescent dye, 2′, 7′-bis(2-carboxyethyl)-5-(e6)-carboxyfluorescein acetoxymethyl ester (BCECF-AM; Molecular Probes Inc, Product No. B-1150) at 37° C. for 10 minutes. The excess dye was then removed by centrifugation at 500×g for 5 minutes and the cells were resuspended at a concentration of 1.2×10^7 cells ml^−1 in Hank's balanced salt solution (HBSS; Gibco BRL, Product No. 14190-094).
Equal volumes of compounds (dissolved in an appropriate solvent and diluted in HBSS containing 1 mM MnCl2) and the labelled Jurkat J6 cells, were added to the VCAM-1 coated plates and adhesion was allowed to proceed for 30 minutes at 37° C. Non, or loosely adhered cells, were removed by inversion of the plate and blotted with tissue paper. Two washes with PBS and further blotting were then performed, before the addition of 2% detergent (Triton-X®; Sigma Chemicals UK, Product No. X100). Counting was undertaken in a Wallac Viktor™ Fluorimeter, where low fluorescence values were indicative of compounds which had inhibited adhesion. All samples were assayed in singlicate and the following four parameter curve fit, shown by Equation (I) was applied: [formula]
Where a is the minimum, b is the Hill slope, c is the IC50 and d is the maximum. (Maximum and minimum values are those compared to adhesion in the absence of compound and in the presence of the dipotassium salt of 2 mM EDTA; Sigma Chemicals, UK, Product No. ED2P). Data is presented as the mean pIC50 with the standard error of the mean of n experiments.
In turn, `CC(C)C[C@H](NC(=O)COc1ccccc1C(C)(C)C)C(=O)N[C@@H](Cc1ccc(OC(=O)N2CCC(C(=O)N3CCCCC3)CC2)cc1)C(=O)O` [Example 29, (2S)-2-{[(2S)-2-({2-[2-(Tert-butyl)phenoxy]acetyl}amino)-4-methylpentanoyl]amino}-3-[4-({[4-(1-piperidinylcarbonyl)-1-piperidinyl]carbonyl}oxy)phenyl]propanoic acid] had an IC50 of 16.2 nM.

As to `CC(C)C[C@H](NC(=O)COc1cc2ccccc2cc1C(=O)N1CCCCC1)C(=O)N[C@@H](Cc1ccc(OC(=O)N2CCC(NC(=O)Cc3ccccc3)CC2)cc1)C(=O)O` [Example 2, (2S)-2-({(2S)-4-Methyl-2-[(2-{[3-(1-piperidinylcarbonyl)-2-naphthyl]oxy}acetyl)amino]pentanoyl}amino)-3-{4-[({4-[(2-phenylacetyl)amino]-1-piperidinyl}carbonyl)oxy]phenyl}propanoic acid], the IC50 is 9.33 nM. `CC(C)C[C@H](NC(=O)c1cccc2c1oc1ccccc12)C(=O)N[C@@H](Cc1ccc(OC(=O)N2CCN(C(=O)c3ccco3)CC2)cc1)C(=O)O` [Example 11, (2S)-2-({(2S)-2-[(Dibenzo[b,d]furan-4-ylcarbonyl)amino]-4-methylpentanoyl}amino)-3-[4-({[4-(2-furoyl)-1-piperazinyl]carbonyl}oxy)phenyl]propanoic acid] had an IC50 of 8.32 nM. In turn, `CC(C)C[C@H](NC(=O)COc1ccccc1C(C)(C)C)C(=O)N[C@@H](Cc1ccc(OC(=O)N2CCC(C(N)=O)CC2)cc1)C(=O)O` [Example 33, (2S)-3-[4-({[4-(Aminocarbonyl)-1-piperidinyl]carbonyl}oxy)phenyl]-2-{[(2S)-2-({2-[2-(tert-butyl)phenoxy]acetyl}amino)-4-methylpentanoyl]amino}propanoic acid] gave a half-inhibitory concentration (IC50) of 3.47 nM. `CC(C)C[C@H](NC(=O)COc1ccccc1C1CCCCC1)C(=O)N[C@@H](Cc1ccc(OC(=O)N2CCC(NC(=O)CC3CCCCC3)CC2)cc1)C(=O)O` [Example 56, (2S)-3-{4-[({4-[(2-Cyclohexylacetyl)amino]-1-piperidinyl}carbonyl)oxy]phenyl}-2-[((2S)-2-{[2-(2-cyclohexylphenoxy)acetyl]amino}-4-methylpentanoyl)amino]propanoic acid]: the concentration for half-maximal inhibition (IC50) was 87.1 nM. Next, `CC(C)C[C@H](NC(=O)COc1ccccc1C(C)(C)C)C(=O)N[C@@H](Cc1ccc(OC(=O)N2CCC(C(=O)NCc3ccc(F)cc3)CC2)cc1)C(=O)O` [Example 34, (2S)-2-{[(2S)-2-({2-[2-(Tert-butyl)phenoxy]acetyl}amino)-4-methylpentanoyl]amino}-3-(4-{[(4-{[(4-fluorobenzyl)amino]carbonyl}-1-piperidinyl)carbonyl]oxy}phenyl)propanoic acid]: 26.9 nM.

`Cc1ccccc1OCC(=O)N[C@@H](CC(C)C)C(=O)N[C@@H](Cc1ccc(OC(=O)N2CCOCC2)cc1)C(=O)O` [Example 25, (2S)-2-[((2S)-4-Methyl-2-{[2-(2-methylphenoxy)acetyl]amino}pentanoyl)amino]-3-{4-[(4-morpholinylcarbonyl)oxy]phenyl}propanoic acid] showed a half-maximal inhibitory concentration (IC50) of 3.16 nM. On to `CC(C)C[C@H](NC(=O)COc1ccccc1C(=O)c1ccccc1)C(=O)N[C@@H](Cc1ccc(OC(=O)N2CCC(NC(=O)Cc3ccc(Cl)cc3)CC2)cc1)C(=O)O` [Example 46, (2S)-2-[((2S)-2-{[2-(2-Benzoylphenoxy)acetyl]amino}-4-methylpentanoyl)amino]-3-(4-{[(4-{[2-(4-chlorophenyl)acetyl]amino}-1-piperidinyl)carbonyl]oxy}phenyl)propanoic acid], for which the half-inhibitory concentration (IC50) is 43.7 nM. To `CC(C)C[C@H](NC(=O)COc1ccccc1C(C)(C)C)C(=O)N[C@@H](Cc1ccc(OC(=O)N2CCC(NC(=O)CC3CCCCC3)CC2)cc1)C(=O)O` [Example 52, (2S)-2-{[(2S)-2-({2-[2-(Tert-butyl)phenoxy]acetyl}amino)-4-methylpentanoyl]amino}-3-{4-[({4-[(2-cyclohexylacetyl)amino]-1-piperidinyl}carbonyl)oxy]phenyl}propanoic acid] belongs 33.1 nM.
